Measurements from patent US11440880B2, “Thalidomide analogs and methods of use” (The USA, as represented by the Secretary, Department of …, priority 2015, dated 2022).

Experiments:
Assay type in all cases: cell-based, mouse
Parameters in all cases: key: NS=not significant; a “+” sign=anti-inflammatory or increased cell numbers; a “−” sign=cell toxicity or pro-inflammatory
RAW 264.7 cells = assay: Cell viability (CellTiter 96 AQueous One) of LPS-challenged RAW 264.7 cells
Description: The CellTiter 96® AQueous One Solution Cell Proliferation Assay (Promega, Madison, Wis.) is routinely used as an assay of cell proliferation, and was used according to the manufacturer's recommendations. Changes in cellular health status are determined by use of indirect measures related to the formation of a colored tetrazolium dye product that can be measured spectrophotometrically at 490 nm λ. […] Optical densities (expressed as O.D.s) were measured after various incubations.
(§1) RAW 264.7 cells obtained from ATCC (Manassas, Va., USA) were grown in DMEM media supplemented with 10% FCS, penicillin 100 μg/ml and streptomycin 100 μg/ml, and maintained at 37° C. and 5% CO2. Cells were seeded in 24 well plates and, 24 hours later, were utilized in studies. One hour prior to the initiation of any study, the seeding media was replaced with fresh media (1 mL), and the cells were allowed to equilibrate at 37° C. and 5% CO2.
(§2) RAW 264.7 cells were challenged with LPS (Sigma, St Louis, Mo.: serotype 055:B5) from at a final concentration of 30 or 60 ng/mL. This concentration of LPS in RAW 264.7 cells induces a sub-maximal rise in both TNF-alpha and nitrite levels without a loss in cellular viability. This sub-maximal rise is useful for assessing whether the addition of an experimental drug can either lower or further raise levels of TNF-α and nitrite. Twenty four hours following the addition of LPS, conditioned media was harvested and analyzed for quantification of secreted TNF-α protein and nitrite levels. Fresh media was replaced into the wells and cell viability was then assessed.
(§3) Thalidomide and analogs were prepared in tissue culture grade DMSO (Sigma). RAW 264.7 cells were pretreated with thalidomide, analogues or vehicle one hour prior to a challenge with LPS. The effects of various concentrations of thalidomide analogues were assessed. All compounds were synthesized to a chemical purity of >99.5%, as assessed by chemical characterization by a combination of 1H NMR, 13C NMR and GC/MS analyses (Bruker AC-300 spectrometer, together with elemental analyses (Atlantic Microlab, Inc., Norcross, Ga.).

[1] = test system: nitrite levels in the culture media; assay: Nitrite level (Griess Reagent System) in LPS-challenged RAW 264.7 cells; settings: LPS 30 or 60 ng/mL, 24 h
Description: (§4) Nitrite levels in the culture media were measured by use of the Griess Reagent System (Promega, Madison, Wis.), following the manufacturer's protocol. The O.D. of unknown samples was read at 520 nm λ, compared to a sodium nitrite standard curve (1.5 μM to 100 μM) and nitrite measured media concentrations expressed as μM units. As the lowest nitrite concentration on the Griess Reagent System standard curve was 1.5 μM, this was chosen as the effective cutoff for defining measurable nitrite concentrations. TNF-α protein levels were measured by use of an ELISA specific for mouse TNF-α protein (BioLegend, San Diego, Calif.) and are expressed as a % change from their appropriate control or as pg/ml.
as §1, §2, §3

TNF-α protein = TNF-α protein level (ELISA) in LPS-challenged RAW 264.7 cells; settings: LPS 30 or 60 ng/mL, 24 h
Description: as §4, §1, §2, §3

C[C@H]1[C@H](N2C(=O)C3CC=CCC3C2=O)C[C@@H]2C[C@H]1C2(C)C (some centres unmarked) [Compound 118]
Viability (RAW 264.7 cells; 10 μM): −
Viability (RAW 264.7 cells; 30 μM): −
Viability (RAW 264.7 cells; 60 μM): −
Nitrite ([1]; 10 μM): +
Nitrite ([1]; 30 μM): +
Nitrite ([1]; 60 μM): +
TNF-α (TNF-α protein; 10 μM): +
TNF-α (TNF-α protein; 30 μM): +
TNF-α (TNF-α protein; 60 μM): +

CC1(C)[C@@H]2CC[C@H](CN3C(=O)C4C5C=CC(C5)C4C3=O)[C@H]1C2 (some centres unmarked) [Compound 113]
Viability (RAW 264.7 cells; 10 μM): −
Viability (RAW 264.7 cells; 30 μM): −
Viability (RAW 264.7 cells; 60 μM): −
Nitrite ([1]; 10 μM): NS
Nitrite ([1]; 30 μM): +
Nitrite ([1]; 60 μM): +
TNF-α (TNF-α protein; 10 μM): NS
TNF-α (TNF-α protein; 30 μM): +
TNF-α (TNF-α protein; 60 μM): +

C[C@@H]1[C@@H](N2C=C3C(=CC=C/C3=N\OO)C2=O)C[C@H]2C[C@@H]1C2(C)C [Compound 105]
Viability (RAW 264.7 cells; 1 μM): NS
Viability (RAW 264.7 cells; 10 μM): NS
Viability (RAW 264.7 cells; 30 μM): −
Nitrite ([1]; 1 μM): NS
Nitrite ([1]; 10 μM): +
Nitrite ([1]; 30 μM): +
TNF-α (TNF-α protein; 1 μM): NS
TNF-α (TNF-α protein; 10 μM): NS
TNF-α (TNF-α protein; 30 μM): +

CC1(C)[C@@H]2CC[C@H](CN3Cc4c(N)cccc4C3=O)[C@H]1C2 [Compound 104]
Viability (RAW 264.7 cells; 1 μM): NS
Viability (RAW 264.7 cells; 10 μM): NS
Viability (RAW 264.7 cells; 30 μM): NS
Nitrite ([1]; 1 μM): −
Nitrite ([1]; 10 μM): −
Nitrite ([1]; 30 μM): −
TNF-α (TNF-α protein; 1 μM): NS
TNF-α (TNF-α protein; 10 μM): NS
TNF-α (TNF-α protein; 30 μM): NS

O=C1c2cccc([N+](=O)[O-])c2CN1C12CC3CC(CC(O)(C3)C1)C2 [Compound 87]
Viability (RAW 264.7 cells; 1 μM): NS
Viability (RAW 264.7 cells; 10 μM): NS
Viability (RAW 264.7 cells; 30 μM): NS
Nitrite ([1]; 1 μM): NS
Nitrite ([1]; 10 μM): NS
Nitrite ([1]; 30 μM): NS
TNF-α (TNF-α protein; 1 μM): NS
TNF-α (TNF-α protein; 10 μM): NS
TNF-α (TNF-α protein; 30 μM): NS

CC1(C)[C@@H]2CC[C@]1(C)[C@H](N1Cc3c(cccc3[N+](=O)[O-])C1=O)C2 [Compound 94]
Viability (RAW 264.7 cells; 1 μM): NS
Viability (RAW 264.7 cells; 30 μM): −
Nitrite ([1]; 1 μM): +
Nitrite ([1]; 10 μM): +
Nitrite ([1]; 30 μM): +
TNF-α (TNF-α protein; 1 μM): NS
TNF-α (TNF-α protein; 10 μM): +
TNF-α (TNF-α protein; 30 μM): +

CC1(C)[C@@H]2CC[C@]1(C)[C@@H](N1Cc3c(N)cccc3C1=O)C2 [Compound 97]
Viability (RAW 264.7 cells; 1 μM): NS
Viability (RAW 264.7 cells; 10 μM): NS
Viability (RAW 264.7 cells; 30 μM): NS
Nitrite ([1]; 1 μM): NS
Nitrite ([1]; 10 μM): NS
Nitrite ([1]; 30 μM): +
TNF-α (TNF-α protein; 1 μM): NS
TNF-α (TNF-α protein; 10 μM): +
TNF-α (TNF-α protein; 30 μM): NS

CC1(C)[C@@H]2CC[C@H](CN3C(=O)C4C5C=CC(C5)C4C3=O)[C@H]1C2 (some centres unmarked) [Compound 114]
Viability (RAW 264.7 cells; 10 μM): −
Viability (RAW 264.7 cells; 30 μM): −
Viability (RAW 264.7 cells; 60 μM): −
Nitrite ([1]; 10 μM): +
Nitrite ([1]; 30 μM): +
Nitrite ([1]; 60 μM): +
TNF-α (TNF-α protein; 10 μM): +
TNF-α (TNF-α protein; 30 μM): +
TNF-α (TNF-α protein; 60 μM): +

Nc1cccc2c1CN([C@@H]1C[C@H]3CC[C@@H]1C3)C2=O [Compound 100]
Viability (RAW 264.7 cells; 1 μM): NS
Viability (RAW 264.7 cells; 10 μM): NS
Viability (RAW 264.7 cells; 30 μM): NS
Nitrite ([1]; 1 μM): NS
Nitrite ([1]; 10 μM): NS
Nitrite ([1]; 30 μM): NS
TNF-α (TNF-α protein; 1 μM): NS
TNF-α (TNF-α protein; 10 μM): NS
TNF-α (TNF-α protein; 30 μM): NS

C[C@@H]1[C@@H](N2Cc3c(cccc3[N+](=O)[O-])C2=O)C[C@H]2C[C@@H]1C2(C)C [Compound 92]
Viability (RAW 264.7 cells; 1 μM): NS
Viability (RAW 264.7 cells; 10 μM): −
Viability (RAW 264.7 cells; 30 μM): −
Nitrite ([1]; 1 μM): +
Nitrite ([1]; 10 μM): +
Nitrite ([1]; 30 μM): +
TNF-α (TNF-α protein; 1 μM): NS
TNF-α (TNF-α protein; 10 μM): +
TNF-α (TNF-α protein; 30 μM): +

C[C@H]1[C@H](N2C(=O)C3C4C=CC(C4)C3C2=O)C[C@@H]2C[C@H]1C2(C)C (some centres unmarked) [Compound 119]
Viability (RAW 264.7 cells; 10 μM): −
Viability (RAW 264.7 cells; 30 μM): −
Viability (RAW 264.7 cells; 60 μM): −
Nitrite ([1]; 10 μM): +
Nitrite ([1]; 30 μM): +
Nitrite ([1]; 60 μM): +
TNF-α (TNF-α protein; 10 μM): +
TNF-α (TNF-α protein; 30 μM): +
TNF-α (TNF-α protein; 60 μM): +

O=C1c2cccc([N+](=O)[O-])c2CN1[C@@H]1C[C@H]2CC[C@@H]1C2 [Compound 99]
Viability (RAW 264.7 cells; 1 μM): NS
Viability (RAW 264.7 cells; 10 μM): −
Viability (RAW 264.7 cells; 30 μM): −
Nitrite ([1]; 1 μM): +
Nitrite ([1]; 10 μM): +
Nitrite ([1]; 30 μM): +
TNF-α (TNF-α protein; 1 μM): NS
TNF-α (TNF-α protein; 10 μM): NS
TNF-α (TNF-α protein; 30 μM): +
